According to patent publication US20220281899A1, “COMPOUND AND FLUORESCENTLY LABELED BIOLOGICAL SUBSTANCE USING THE SAME” (FUJIFILM Corporation, priority 2019, published 2022):

Columns and labels:
Format in all cases: physicochemical
[1] = Evaluation of water solubility (PBS pH 7.4, UHPLC concentration of filtrate); conditions: compound; PBS pH 7.4, 1% DMSO, 200 μM if completely dissolved
Experimental: 5 μL of a DMSO solution having a concentration of 20 mM of the above compound (hereinafter, referred to as a sample) and 495 μL of PBS having a pH of 7.4 were added and mixed in a 1.5 mL Eppendorf tube and stirred with a multi-shaker MS300 (product name, AS ONE Corporation) at 2,000 rpm for 30 minutes. The obtained mixed solution was allowed to be left for 60 minutes with light shielding and then subjected to centrifugal precipitation (12,000 rpm, 5 minutes). For the filtrate filtered using a filter having a pore diameter of 0.20 μm, the sample concentration was measured with Nexera UHPLC [product name, manufactured by Shimadzu Corporation, column: Shim-pack XR-ODSII] (the sample concentration is 200 μM in a case where the sample is completely dissolved) and evaluated based on the following evaluation standards.
In the present test, it is determined that a compound has passed the evaluation of the water solubility in a case where the compound has a rank “B” or higher.
B: 10 μM or more and less than 100 μM
C: 1 μM or more and less than 10 μM […]
(§1) The water solubility and the fluorescence quantum of the labeled antibody were evaluated according to the same methods as those described in Example 1 except that in the evaluation of the water solubility and the fluorescence quantum yield in Example 1, the sample for measurement was changed from the compound to the labeled antibody.

[2] = Evaluation of fluorescence quantum yield (PBS solution, pH 7.4); conditions: compound
Experimental: A PBS solution (pH 7.4) of the above compound was evaluated according to the method described in the following reference document.
“A Guide to Recording Fluorescence Quantum Yields” (a HORIBA Scientific document, available from https://www.horiba.com/fileadmin/uploads/Scientific/Documents/Fluorescence/quantumyields trad.pdf)
In the present test, it is preferable that the fluorescence quantum yield satisfies the evaluation rank “B” or higher from the viewpoint of practicality as the fluorescent compound.
B: 0.7 or more and less than 0.9
C: 0.5 or more and less than 0.7
D: 0.3 or more and less than 0.5
F: not evaluable due to low water solubility
as §1

[3] = Evaluation of light resistance in aqueous solution (xenon lamp exposure, absorbance decrease); conditions: compound; PBS pH 7.4; xenon lamp 22 mW/cm^2
Experimental: The above compound or labeled antibody (hereinafter, referred to as a sample) was dissolved in PBS having a pH of 7.4 so that the absorbance at the absorption wavelength peak was 0.095 to 0.105. In a state of being exposed to light using a merry-go-round type light irradiator, the obtained solution was subjected to the temporal measurement of the absorbance of the absorption wavelength peak of the sample with a spectroscope (manufactured by Agilent Technologies, Inc., product name: Agilent 8453).
For the light exposure using the merry-go-round type light irradiator, a xenon lamp UXL-500D-O (product name) manufactured by Ushio, Inc. was used, and an HA-50 filter and a Y44 filter manufactured by HOYA were used as sharp cut filters (both are product names), where the light exposure intensity was 22 mW/cm^2 (in terms of 500 nm conversion).
The absorbance at the absorption peak wavelength before light exposure was set to 100% and the light exposure time until the absorbance at this absorption peak wavelength decreases by 50% (the absorbance at the absorption peak wavelength reaches 50%) was measured. The results were evaluated based on the following evaluation standards. A high evaluation rank is highly preferable since stability is kept for a long time.
B: 60 hours or more and less than 80 hours
C: 40 hours or more and less than 60 hours
D: 20 hours or more and less than 40 hours […]

Row | SMILES | Water solubility [1] | Fluorescence quantum yield [2] | Light resistance (light exposure time until absorbance at absorption peak reaches 50%) [3]
1 | Cc1cc(C)n2c1C=C1C=CC(CCC(=O)O)=[N+]1[B-]2(F)F [BODIPY FL] | C (1 μM or more and less than 10 μM) | B (0.7 or more and less than 0.9) | F (less than 10 hours)
2 | CC1=CC(C)=[N+]2C1=C(C)c1c(C)cc(C)n1[B-]2(F)F [BODIPY493/503] | C (1 μM or more and less than 10 μM) | A (0.9 or more) | F (less than 10 hours)
